How the values were obtained:
[1] = biological target: T1, AuroraA-TPX2 (Homo sapiens, UniProt O14965); experiment: AuroraA-TPX2 Homogeneous Time Resolved Fluorescent (HTRF) kinase assay; type: biochemical; settings: average; ATP about 1 μM; read-out: AurA_IC50_IP (uM Avg)
T1 construct: 20 μL of AuroraA-TPX2 KD GST; GST
T1 sequence (O14965 133-383 limits assumed): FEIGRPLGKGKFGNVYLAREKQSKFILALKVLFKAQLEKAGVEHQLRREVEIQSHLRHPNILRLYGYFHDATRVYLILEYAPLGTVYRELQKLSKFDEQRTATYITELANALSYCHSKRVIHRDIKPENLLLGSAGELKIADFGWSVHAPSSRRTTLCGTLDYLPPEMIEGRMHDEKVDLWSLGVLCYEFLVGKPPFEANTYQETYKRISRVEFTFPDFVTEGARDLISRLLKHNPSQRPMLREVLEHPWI
T1 sequence (Q9ULW0 1-43 partner limits assumed): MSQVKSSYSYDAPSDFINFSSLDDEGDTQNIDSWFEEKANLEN
Protocol: The Aurora-A HTRF assay begins with Aurora-A in the presence of ATP phosphorylating the biotinylated peptide PLK. The reaction incubates for about 120 min. Detection reagents are added to quench the reaction. These agents stop the reaction by diluting out the enzyme and chelating the metals due to the presence of EDTA. After addition, the assay is incubated overnight to allow the detection reagents to equilibrate.
The AuroraA HTRF assay comprises 1 μL of compound in 100% DMSO, 20 μL of ATP and biotinylated PLK, and 20 μL of AuroraA-TPX2 KD GST for a final volume of about 41 μL. The final concentration of PLK is about 1 μM. The final concentration of ATP is about 1 μM (Km(app)=1 μM+/−0.1) and the final concentration of AuroraA is about 5 nM. Buffer conditions are as follows: 60 mM HEPES pH 7.5, 25mM NaCl, 10 mM MgCl, 2 mM DTT, 0.05% BSA.
(§1) The assay is quenched and stopped with 160 μL of detection reagent. Detection reagents are as follows: Buffer made of 50 mM Tris, pH 7.5, 100 mM NaCl, 3 mM EDTA, 0.05% BSA, 0.1% Tween20. Added to this buffer prior to reading is Steptavidin allophycocyanin (SA-APC) at a final conc in the assay of 0.0005 mg/mL, and europilated anti-phosphoPLK Ab (Eu-anti-PLK) at a final conc of 0.02 nM.
(§2) The assay plate is read in either a Discovery or a RubyStar. The eu-anti-PLK is excited at 320 nm and emits at 615 nm to excite the SA-APC which in turn emits at 655 nm. The ratio of SA-APC at 655 nm (excited due to close proximity to the Eu-anti-PLK because of phosphorylation of the peptide) to free Eu-anti-PLK at 615 nm will give substrate phosphorylation.
Many of the Examples described herein were tested and found to be active compounds. Table I includes related biological data, which may be interpreted using the activity gauge below.

[2] = biological target: T2, AuroraB (Homo sapiens, UniProt Q96GD4); experiment: AuroraB Homogeneous Time Resolved Fluorescent (HTRF) kinase assay; type: biochemical; settings: average; ATP 23 μM; read-out: AurB_IC50_IP (uM Avg)
T2 construct: 20 μL of AuroraB FL His; His
T2 sequence (Q96GD4 whole entry): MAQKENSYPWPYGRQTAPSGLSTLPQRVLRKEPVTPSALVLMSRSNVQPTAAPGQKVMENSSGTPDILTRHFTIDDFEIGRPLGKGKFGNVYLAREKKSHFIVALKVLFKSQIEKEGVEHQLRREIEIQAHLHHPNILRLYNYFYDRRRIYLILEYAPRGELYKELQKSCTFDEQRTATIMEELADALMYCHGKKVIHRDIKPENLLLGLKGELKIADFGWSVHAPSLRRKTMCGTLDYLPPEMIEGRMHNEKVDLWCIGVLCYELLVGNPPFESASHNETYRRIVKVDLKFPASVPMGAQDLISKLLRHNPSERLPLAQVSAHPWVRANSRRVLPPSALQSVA
Protocol: The AuroraB HTRF assay begins with AuroraB in the presence of ATP phosphorylating the biotinylated peptide Histone H3. The reaction incubates for about 90 min. the reaction is quentched by addition of detection reagents, which stop the reaction by diluting out the enzyme and chelating the metals due to the presence of EDTA. After addition, the assay is incubated for about 60 min to allow detection reagents to equilibrate.
The AuroraB HTRF assay comprises 1 μL of compound in 100% DMSO, 20 μL of ATP and biotinylated Histone H3, and 20 μL of AuroraB FL His for a final volume of 41 μL. The final concentration of Histone H3 is 0.1 μM. The final concentration of ATP is 23 μM (Km(app)=23 μM+/−2.6) and the final concentration of AuroraB is 400 pM. Buffer conditions are as follows: 50 mM HEPES pH 7.5, 5 mM NaCl, 0.5 mM MgCl, 0.5 mM MnCl, 2 mM DTT, 0.05% BSA.
as §1, with “0.001” for “0.0005”, “anti-phosphoHistoneH3” for “anti-phosphoPLK”, “(Eu-anti-HisH3)” for “(Eu-anti-PLK)”, “0.064” for “0.02”
as §2, with “eu-anti-HisH3” for “eu-anti-PLK”, “Eu-anti-HisH3” for “Eu-anti-PLK”
Many of the Examples described herein were tested, and fund to be active compounds. Table I includes related biological data, which may be interpreted using the activity gauge below.

[3] = tested on: HeLa cells; experiment: HeLa cell 24 hr ploidy assay; type: cell-based; settings: Homo sapiens, 24 hrs treatment, DNA ploidy, average, read-out: 24h_4N Ploidy EC50_IP (uM Avg)
Protocol: The purpose of this assay is to evaluate the ability of selected individual compounds to induce Deoxyribonucleic acid (DNA) content (ploidy) in cells through failed cell division. Cell cycle analysis is a rapid and efficient way to evaluate the status of DNA content (ploidy) of a given cell. HeLa cells (1×10^4 HeLa cells/well) in 100 ul of media (MEM+10% FBS) were plated in 96-well plates (Packard View) and cultured for 24 hrs at 37° C. maintained in a 5% CO2 atmosphere. The following day, cells were treated for 24 hrs with inhibitor compounds (10 pt. Dose ranging from 0.0024-1.25 umol/L). The compounds were serially diluted in DMSO (0.25% final concentration). The cells were fixed (3.7% Formaldehyde and 1% glutaraldehyde) and permeabilized (1×PBS with 1% BSA an d0.2% Triton X-100) in preparation for nuclear staining. The well plates were stained for 45 minutes at RT in the dark using Hoechest 33342 nuclear stain at 0.5 ug.ml (Stock of 10 mg/ml, Invitrogen, Calif., Cat #H3570). The nuclear stain was removed by aspiration and the cells were washed with wash buffer. A Cellomics Array Scan Vti plate reader was used to acquire the DNA ploidy data of the cells using Cell Cycle bioapplication. Numbers for each of “valid cell count/well”, “% of 4N cells” and “% of >4Ncells” were calculated with the assistance of an Activity Base 5.1ca software and dose curves were generated using an XLFit software. With XLFit, final EC50 IP and EC50 transit values, as well as the Max and Min, were calculated for each curve.

Row | IC50 [1] [µM] | IC50 [2] [µM] | EC50 [3] [µM] | SMILES
1 | 1 to 5 | 0.1 to 0.5 | 0.1 to 0.5 | CNC(=O)c1cc(Sc2ccc(Nc3nnc(-c4ccc(Cl)cc4)c4ccccc34)cc2)ccn1 [Example 25, 4-((4-((4-(4-chlorophenyl)-1-phthalazinyl)amino)phenyl)thio)-N-methyl-2-pyridinecarboxamide]
2 | 0.1 to 0.5 | < 0.1 | 0.1 to 0.5 | CNc1cc(Sc2ccc(Nc3nnc(-c4ccc(Cl)cc4)c4ccccc34)cc2)ccn1 [Example 28, 4-(4-chlorophenyl)-N-(4-((2-(methylamino)-4-pyridinyl)thio)phenyl)-1-phthalazinamine]
3 | 1 to 5 | 0.5 to 1 | 0.1 to 0.5 | CNCCNc1nccc(Sc2ccc(Nc3nnc(-c4ccc(Cl)cc4)c4ccccc34)cc2)n1 [Example 34, N-(4-((4-((4-(4-chlorophenyl)-1-phthalazinyl)amino)phenyl)sulfanyl)-2-pyrimidinyl)-N′-methyl-1,2-ethanediamine]

From US20110301162A1, “AURORA KINASE MODULATORS AND METHODS OF USE” (AMGEN INC., priority 2008, published 2011)
